What was measured:
[1] = test system: Setaria faberi; assay: Greenhouse pot test, post-emergence spray, herbicidal effect (Examples 202, 203); assay type: in vivo; conditions: sprayed at 2-3 leaf stage, one week
Description: (§1) A plastic pot was filled with a commercially-available culture soil, and thereto inubie (common barnyardgrass; Echinochloa crus-galli) or akinoenokorogusa (giant foxtail; […] When the weeds grew to two to three leaf stage, a spray liquid of the compound X, a spray liquid of dicamba diglycolamine salt, or a spray liquid of the present composition was uniformly sprayed to the whole plants so that the application rate might be a predetermined value. The spray liquid of the present composition was prepared by mixing the spray liquid of the compound X with the spray liquid of dicamba diglycolamine salt. The spray liquid of the compound X was prepared by mixing a predetermined amount of the formulation X with deionized water. […] After applying the spray liquid, the plants were placed in a greenhouse for a week. […] A plastic pot was filled with a commercially-available culture soil, and thereto inubie (common barnyardgrass; Echinochloa crus-galli) or akinoenokorogusa (giant foxtail; […] The spray liquid of the compound X was prepared by mixing a predetermined amount of the formulation X with deionized water. […] After applying the spray liquid, the plants were placed in a greenhouse for a week.

[2] = test system: Echinochloa crus-galli; assay: as above; assay type: in vivo; conditions: sprayed at 2-3 leaf stage, one week
Description: as §1

[3] = dicamba salt 50 g/ha alone, scale 0-100
[4] = dicamba salt 500 g/ha alone, scale 0-100
[5] = Compound X 5 g/ha alone, scale 0 (no effect) to 100 (completely dead)
[6] = Compound X 10 g/ha alone, scale 0-100

SMILES	Herbicidal effect on Setaria faberi (observed value) [1, 3]	Herbicidal effect on Setaria faberi (observed value) [1, 4]	Herbicidal effect on Echinochloa crus-galli (observed value) [2, 3]	Herbicidal effect on Echinochloa crus-galli (observed value) [2, 4]	Herbicidal effect on Setaria faberi (observed value) [1, 5]	Herbicidal effect on Setaria faberi (observed value) [1, 6]	Herbicidal effect on Echinochloa crus-galli (observed value) [2, 5]	Herbicidal effect on Echinochloa crus-galli (observed value) [2, 6]
CN(CCCN)CCCN.COc1c(Cl)ccc(Cl)c1C(=O)O [dicamba BAPMA salt, dicamba N,N-bis(3-aminopropyl)methylamine salt]	0	10	0	5				
COc1c(Cl)ccc(Cl)c1C(=O)O.NCCOCCO [dicamba diglycolamine salt]	0	0	0	10				
CCOC(=O)COc1ncccc1Oc1cc(-n2c(=O)cc(C(F)(F)F)n(C)c2=O)c(F)cc1Cl [Compound X, ethyl [3-[2-chloro-4-fluoro-5-(1-methyl-6-trifluoromethyl-2,4-dioxo-1,2,3,4-tetrahydropyrimidin-3-yl)phenoxy]-2-pyridyloxy]acetate]					30	45	20	35

From US10624346B2, “Herbicidal composition and method for controlling weeds” (Sumitomo Chemical Company, Limited, priority 2016, dated 2020)
